Test results: PubChem BioAssay AID1963841 (Molecular Pharmacology Branch, DTP, NCI, 2024)

Tested on: 439559-082-T-J2-PDC spheroid viability
Experiment: Anticancer human tumor 439559-082-T-J2-PDC patient-derived colon adenocarcinoma cell line growth inhibition [POLQ]
Settings: spheroids with HUVEC and MSC; for IC50: curve of first compound; for viability, T/C: stronger effect = lower value
Method: Multicellular complex tumor spheroid response to Polymerase (POL) inhibitors (novobiocin, ART-558, RP6685) in combination with a variety of drugs and investigational agents in selected tumor cell lines
The POL inhibitors (novobiocin, ART-558, and RP6685) were evaluated both individually and in combination with standard of care and investigational anticancer small molecules within a complex spheroid model of solid tumors. . Complex spheroids include a stromal component modeled by human endothelial cells (HUVEC) and fibroblasts modeled by human mesenchymal stem cells (MSCs). The concentration ranges selected for each drug and investigational agent were based upon clinically achievable concentrations if the clinical Cmax of the agent was known.
Compounds. The drugs and investigational agents: novobiocin (NSC847541), ART-558 (NSC835418), RP-6685 (NSC848927), peposertib (NSC802822), ceralasertib (NSC780249), elimusertib (NSC800525), camonsertib (NSC841442), AZD-1390 (NSC803789), olaparib (NSC753686), talazoparib (NSC767125), rucaparib (NSC756644), sotorasib (NSC818433), MRTX-1133 (NSC836407), SN-38 (NSC673596), topotecan (NSC609699), epotoside (NSC141540), doxorubicin (NSC123127), gemcitabine (NSC613327), 5-fluorouracil (NSC19893), paclitaxel (NSC125973), vemurafenib (NSC761431), MSA-2 (NSC828583), SN-011 (NSC837082), adavosertib (NSC754352), prexasertib (NSC758257), carboplatin (NSC241240) and oxaliplatin (NSC266046), were obtained from the National Cancer Institute (NCI) Developmental Therapeutics Program Chemical Repository (21). The FDA-approved anticancer drug set is available from the Developmental Therapeutics Program at https://dtp.cancer.gov/organization/dscb/obtaining/. […] The stock solutions were prepared in dimethyl sulfoxide (DMSO, Sigma-Aldrich, St. Louis, MO, cat. D2650), except for the platinum compounds which were prepared in saline (Quality Biological, Gaithersburg, MD, cat. 114-055-101), at 800-fold the tested concentration and stored at -70 degrees C prior to their use. All drugs and investigational agents were tested over a range starting from a high concentration at or near the clinical Cmax and decreasing in half-log increments. If the clinical Cmax for an agent had not been determined, the highest concentration tested was 10 microM, except for SN-38, which was tested at a high concentration of 1 microM.
Cell Culture. All cells were maintained in an incubator at 37 degrees C and 5% CO2 with 95% humidity. The PDC lines were cultured according to standard operating procedures established by the NCI PDMR (https://pdmr.cancer.gov). Table 3 of the manuscript, lists the cell lines along with the number of the three cell types plated to form the mct-spheroids and media for tumor cell growth. After thawing, all PDC lines, except 997537-175-T-J1-PDC and 415267-285-R-J2-PDC, were cultured in Matrigel-coated flasks prepared with a working solution of 1X Ham's F-12 nutrient mix, without supplementation (Thermo Fisher Scientific, cat. 11765054), 100 U/mL penicillin-streptomycin (Thermo Fisher Scientific, cat. 15140122), and 2.5% Matrigel (Corning Inc., Corning, NY, cat. 354248) for the first three passages. The two PDC lines 997537-175-T-J1-PDC and 415267-285-R-J2-PDC were cultured on uncoated flasks. The 857933-349-R-J2-PDC line was cultured in 6C/Colon 1B media containing advanced DMEM/F-12 (Thermo Fisher Scientific, cat. 12634028), 10 mM HEPES (Thermo Fisher Scientific, cat. 15630080), 1X GlutaMAX supplement (Thermo Fisher Scientific, cat. 35050061), 0.1 mg/mL primocin (InvivoGen, San Diego, CA, cat. ant-pm-2), 10% defined fetal bovine serum, heat inactivated (HyClone Laboratories Inc., Logan, UT, cat. SH30070.03HI), 50% L-WRN conditioned media (ATCC, cat. CRL-3276), 1.25 mM N-Acetyl-L-cysteine (Sigma-Aldrich, cat. A9165), 10 mM nicotinamide (Sigma-Aldrich, cat. N0636), 1X B-27 supplement (Thermo Fisher Scientific, cat. 17504044), 1X N-2 supplement (Thermo Fisher Scientific, cat. […]

[1] = second compound 0.0316 µM, first compound 0.0316 µM
[2] = second compound 0.0316 µM, first compound 0.1 µM
[3] = second compound 0.0316 µM, first compound 0.316 µM
[4] = second compound 0.0316 µM, first compound 1 µM
[5] = second compound 0.0316 µM, first compound 3.16 µM
[6] = second compound 0.0316 µM, first compound 10 µM
[7] = second compound 0.1 µM, first compound 0.0316 µM
[8] = second compound 0.1 µM, first compound 0.1 µM
[9] = second compound 0.1 µM, first compound 0.316 µM
[10] = second compound 0.1 µM, first compound 1 µM
[11] = second compound 0.1 µM, first compound 3.16 µM
[12] = second compound 0.1 µM, first compound 10 µM
[13] = second compound 0.316 µM, first compound 0.0316 µM
[14] = second compound 0.316 µM, first compound 0.1 µM
[15] = second compound 0.316 µM, first compound 0.316 µM
[16] = second compound 0.316 µM, first compound 1 µM
[17] = second compound 0.316 µM, first compound 3.16 µM
[18] = second compound 0.316 µM, first compound 10 µM
[19] = second compound 1 µM, first compound 0.0316 µM
[20] = second compound 1 µM, first compound 0.1 µM
[21] = second compound 1 µM, first compound 0.316 µM
[22] = second compound 1 µM, first compound 1 µM
[23] = second compound 1 µM, first compound 3.16 µM
[24] = second compound 1 µM, first compound 10 µM
[25] = second compound 3.16 µM, first compound 0.0316 µM
[26] = second compound 3.16 µM, first compound 0.1 µM
[27] = second compound 3.16 µM, first compound 0.316 µM
[28] = second compound 3.16 µM, first compound 1 µM
[29] = second compound 3.16 µM, first compound 3.16 µM
[30] = second compound 3.16 µM, first compound 10 µM
[31] = second compound 10 µM, first compound 0.0316 µM
[32] = second compound 10 µM, first compound 0.1 µM
[33] = second compound 10 µM, first compound 0.316 µM
[34] = second compound 10 µM, first compound 1 µM
[35] = second compound 10 µM, first compound 3.16 µM
[36] = second compound 10 µM, first compound 10 µM
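Note: spheroids exposed to compounds for seven days before readout.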
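Throughout, for viability, T/C: 100% = DMSO vehicle control viability.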

CCc1cc2c(N3CCc4c(cc(Cn5ccnc5)cc4-c4cn(C)nc4C(F)(F)F)C3=O)cc(C)nc2c(OC)n1 + Nc1ccc(C#CCN(C(=O)Cc2ncc(C(F)(F)F)cc2C(F)(F)F)c2ccc(F)cc2)nn1
IC50 (second compound 0.0316 µM): > 10 µM | IC50 (second compound 0.1 µM): > 10 µM | IC50 (second compound 0.316 µM): > 10 µM | IC50 (second compound 1 µM): > 10 µM | IC50 (second compound 3.16 µM): > 10 µM | IC50 (second compound 10 µM): > 10 µM | viability, T/C [1]: 97% | viability, T/C [2]: 96.8% | viability, T/C [3]: 95.3% | viability, T/C [4]: 93.2% | viability, T/C [5]: 98.2% | viability, T/C [6]: 92.7% | viability, T/C [7]: 108% | viability, T/C [8]: 87.9% | viability, T/C [9]: 89.7% | viability, T/C [10]: 95.9% | viability, T/C [11]: 91.9% | viability, T/C [12]: 96.2% | viability, T/C [13]: 102% | viability, T/C [14]: 92.2% | viability, T/C [15]: 95.7% | viability, T/C [16]: 96% | viability, T/C [17]: 96.1% | viability, T/C [18]: 86.5% | viability, T/C [19]: 94.5% | viability, T/C [20]: 95% | viability, T/C [21]: 89.3% | viability, T/C [22]: 85.3% | viability, T/C [23]: 104% | viability, T/C [24]: 88.6% | viability, T/C [25]: 101% | viability, T/C [26]: 93.3% | viability, T/C [27]: 85.9% | viability, T/C [28]: 86.3% | viability, T/C [29]: 92.6% | viability, T/C [30]: 86.3% | viability, T/C [31]: 98.5% | viability, T/C [32]: 95.3% | viability, T/C [33]: 80.4% | viability, T/C [34]: 96% | viability, T/C [35]: 89.1% | viability, T/C [36]: 86.8%

COc1cc2cc(C(=O)CCC(=O)O)sc2cc1OC + Nc1ccc(C#CCN(C(=O)Cc2ncc(C(F)(F)F)cc2C(F)(F)F)c2ccc(F)cc2)nn1
IC50 (second compound 0.0316 µM): > 10 µM | IC50 (second compound 0.1 µM): > 10 µM | IC50 (second compound 0.316 µM): > 10 µM | IC50 (second compound 1 µM): > 10 µM | IC50 (second compound 3.16 µM): > 10 µM | IC50 (second compound 10 µM): > 10 µM | viability, T/C [1]: 99.2% | viability, T/C [2]: 99.3% | viability, T/C [3]: 96.7% | viability, T/C [4]: 95.8% | viability, T/C [5]: 105% | viability, T/C [6]: 97.5% | viability, T/C [7]: 95% | viability, T/C [8]: 107% | viability, T/C [9]: 93.1% | viability, T/C [10]: 99.2% | viability, T/C [11]: 93% | viability, T/C [12]: 98.7% | viability, T/C [13]: 94.5% | viability, T/C [14]: 101% | viability, T/C [15]: 97.4% | viability, T/C [16]: 93.4% | viability, T/C [17]: 98.1% | viability, T/C [18]: 91.8% | viability, T/C [19]: 96.2% | viability, T/C [20]: 103% | viability, T/C [21]: 90.3% | viability, T/C [22]: 93.6% | viability, T/C [23]: 99.3% | viability, T/C [24]: 88.4% | viability, T/C [25]: 90.5% | viability, T/C [26]: 88.8% | viability, T/C [27]: 98.6% | viability, T/C [28]: 91.3% | viability, T/C [29]: 97% | viability, T/C [30]: 102% | viability, T/C [31]: 107% | viability, T/C [32]: 101% | viability, T/C [33]: 98.2% | viability, T/C [34]: 98.8% | viability, T/C [35]: 96.4% | viability, T/C [36]: 82.6%
